Laboratory results as given in the NIST ThermoML archive (doi:10.1021/je7005133).
± gives the expanded uncertainty stated by the source.

c1ccc2cc3ccccc3cc2c1 [anthracene]
Crystal
Settings | vapor or sublimation pressure [kPa]
322.2 K | 1.6e-05 ± 1.7e-06
327 K | 2.6e-05 ± 2.7e-06
329.1 K | 3.33e-05 ± 3.4e-06
333.4 K | 4.91e-05 ± 5e-06
336.3 K | 7.2e-05 ± 7.4e-06
338.7 K | 9.43e-05 ± 9.6e-06
340.4 K | 0.00011 ± 1.1e-05
341.2 K | 0.000119 ± 1.2e-05
342.3 K | 0.000131 ± 1.3e-05
343.6 K | 0.000141 ± 1.4e-05
344.2 K | 0.000164 ± 1.7e-05
346.4 K | 0.000192 ± 2e-05
348.2 K | 0.00026 ± 2.7e-05

c1ccc2c(c1)c1ccccc1c1ccccc21 [triphenylene]
Crystal
Settings | vapor or sublimation pressure [kPa]
368.4 K | 1.7e-05 ± 1.8e-06
377.4 K | 4.48e-05 ± 4.5e-06
377.7 K | 4.51e-05 ± 4.6e-06
378 K | 4.64e-05 ± 4.7e-06
386.7 K | 0.000116 ± 1.2e-05
390.7 K | 0.000178 ± 1.8e-05
394.9 K | 0.000264 ± 2.7e-05
395 K | 0.000258 ± 2.6e-05
399.1 K | 0.000375 ± 3.8e-05

c1cc2cccc3c4cccc5cccc(c(c1)c23)c54 [perylene]
Crystal
Settings | vapor or sublimation pressure [kPa]
390 K | 1.37e-05 ± 1.4e-06
390.5 K | 1.47e-05 ± 1.5e-06
391.2 K | 1.49e-05 ± 1.6e-06
393.7 K | 2.15e-05 ± 2.2e-06
397.7 K | 3.15e-05 ± 3.2e-06
398.3 K | 3.03e-05 ± 3.1e-06
402.2 K | 4.58e-05 ± 4.6e-06
402.8 K | 4.76e-05 ± 4.9e-06
403.7 K | 5.19e-05 ± 5.4e-06
405.7 K | 6.67e-05 ± 6.8e-06
406.6 K | 7.2e-05 ± 7.3e-06
406.8 K | 7.03e-05 ± 7.2e-06
410.5 K | 0.0001 ± 1e-05
411.3 K | 0.000102 ± 1.1e-05
412.7 K | 0.000132 ± 1.4e-05
413.4 K | 0.000142 ± 1.4e-05
414.4 K | 0.000148 ± 1.5e-05
418.4 K | 0.000196 ± 2e-05
428.6 K | 0.000443 ± 4.5e-05
432.4 K | 0.000606 ± 6.1e-05

c1cc2ccc3cccc4ccc(c1)c2c34 [pyrene]
Crystal
Settings | vapor or sublimation pressure [kPa]
322 K | 8.95e-06 ± 1.1e-06
337.1 K | 5.31e-05 ± 5.4e-06
342.1 K | 9.43e-05 ± 9.6e-06
347.1 K | 0.000147 ± 1.5e-05
352.3 K | 0.000227 ± 2.3e-05
356.8 K | 0.000339 ± 3.5e-05
362.1 K | 0.000599 ± 6.1e-05
372 K | 0.0013 ± 0.00028
381.4 K | 0.00281 ± 0.00069

c1ccc2c(c1)cc1ccc3cccc4ccc2c1c34 [benzo[a]pyrene]
Crystal
Settings | vapor or sublimation pressure [kPa]
392.3 K | 7.31e-05 ± 7.4e-06
393.5 K | 7.96e-05 ± 8.3e-06
397.8 K | 0.000129 ± 1.3e-05
400.8 K | 0.000167 ± 1.7e-05
402.3 K | 0.00018 ± 1.8e-05
405.2 K | 0.000217 ± 2.2e-05
406.6 K | 0.000273 ± 2.8e-05
411.5 K | 0.000394 ± 4.3e-05
411.8 K | 0.000418 ± 4.5e-05
415.1 K | 0.000494 ± 5.4e-05
415.5 K | 0.000537 ± 5.8e-05
419 K | 0.000697 ± 7e-05
419.7 K | 0.000733 ± 7.4e-05
421.2 K | 0.000785 ± 7.9e-05
423.8 K | 0.00098 ± 9.9e-05
423.9 K | 0.00102 ± 0.00021

c1cc2c3c(cccc3c1)CC2 [acenaphthene]
Crystal
Settings | vapor or sublimation pressure [kPa]
297.6 K | 0.00029 ± 3e-05
299.7 K | 0.000362 ± 3.7e-05
300.5 K | 0.000413 ± 4.2e-05
301.6 K | 0.00044 ± 4.5e-05
302.8 K | 0.000508 ± 5.2e-05
306.1 K | 0.000693 ± 7.1e-05
310.7 K | 0.00112 ± 0.00023
315.6 K | 0.0018 ± 0.00041

C1=Cc2cccc3cccc1c23 [acenaphthylene]
Crystal
Settings | vapor or sublimation pressure [kPa]
297.4 K | 0.000488 ± 5.1e-05
297.6 K | 0.000531 ± 5.5e-05
304.6 K | 0.00105 ± 0.00021
304.7 K | 0.00108 ± 0.00022
306.7 K | 0.00114 ± 0.00024
311.9 K | 0.00182 ± 0.00041
314.8 K | 0.00345 ± 0.00088
318.5 K | 0.00345 ± 0.00088
318.6 K | 0.00347 ± 0.00088
319.7 K | 0.00414 ± 0.0011

c1ccc2c(c1)ccc1c3ccccc3ccc21 [chrysene]
Crystal 2
Settings | vapor or sublimation pressure [kPa]
372.4 K | 1.74e-05 ± 1.8e-06
380.7 K | 3.72e-05 ± 3.8e-06
385.2 K | 5.37e-05 ± 5.5e-06
389.2 K | 7.61e-05 ± 7.7e-06
389.4 K | 7.5e-05 ± 7.6e-06
393.6 K | 0.000103 ± 1.5e-05
394.2 K | 0.000136 ± 1.4e-05
396.1 K | 0.000148 ± 1.5e-05
398.1 K | 0.000168 ± 1.7e-05
398.2 K | 0.000158 ± 1.6e-05
400 K | 0.000202 ± 2.1e-05
400.4 K | 0.000212 ± 2.2e-05
402.8 K | 0.000263 ± 2.7e-05
403 K | 0.000254 ± 2.6e-05
404.8 K | 0.000277 ± 3.4e-05
404.9 K | 0.000292 ± 3e-05
405.1 K | 0.000306 ± 3.6e-05
406.8 K | 0.000336 ± 3.4e-05
408.6 K | 0.000379 ± 3.8e-05

c1ccc2c(c1)-c1cccc3cccc-2c13 [fluoranthene]
Crystal
Settings | vapor or sublimation pressure [kPa]
326.8 K | 3.96e-05 ± 4.1e-06
326.9 K | 4.11e-05 ± 4.3e-06
331 K | 6.16e-05 ± 6.2e-06
331.8 K | 6.32e-05 ± 6.4e-06
336.7 K | 0.000117 ± 1.2e-05
338.7 K | 0.000129 ± 1.3e-05
338.8 K | 0.000131 ± 1.3e-05
338.9 K | 0.000144 ± 1.5e-05
340.2 K | 0.000154 ± 1.6e-05
342.5 K | 0.000206 ± 2.1e-05
343.9 K | 0.000248 ± 2.5e-05
345.3 K | 0.000258 ± 2.6e-05
348 K | 0.00033 ± 3.3e-05
348.5 K | 0.000341 ± 3.4e-05
350.9 K | 0.000463 ± 4.7e-05
354.1 K | 0.00058 ± 6e-05
359.2 K | 0.00105 ± 0.00021

c1ccc2c(c1)Cc1ccccc1-2 [fluorene]
Crystal
Settings | vapor or sublimation pressure [kPa]
298 K | 6.61e-05 ± 6.9e-06
298.1 K | 6.52e-05 ± 6.9e-06
299.8 K | 8.4e-05 ± 8.7e-06
301.4 K | 9.88e-05 ± 1e-05
304.3 K | 0.000141 ± 1.4e-05
306.6 K | 0.000178 ± 2.1e-05
306.9 K | 0.000195 ± 2.3e-05
308.1 K | 0.000218 ± 2.2e-05
309.8 K | 0.000261 ± 2.7e-05
311.2 K | 0.000301 ± 3.1e-05
314.3 K | 0.000414 ± 4.2e-05
316 K | 0.00046 ± 4.7e-05
316.5 K | 0.000531 ± 5.6e-05
317.3 K | 0.000581 ± 6e-05
317.6 K | 0.000613 ± 6.5e-05
320.3 K | 0.00076 ± 7.9e-05
324.4 K | 0.00127 ± 0.00027
